Assay results: ChEMBL document CHEMBL3593229, “Identification of a potent 5-phenyl-thiazol-2-ylamine-based inhibitor of FLT3 with activity against drug resistance-conferring point mutations” (Eur J Med Chem, 2015)
Active and inactive are the calls of the source. No cut-off for these calls is given here.

Assays:
[1] = molecular target: Proto-oncogene tyrosine-protein kinase Src (Homo sapiens) (UniProt P12931); assay: Inhibition of human SRC at 0.1 uM relative to control
[2] = molecular target: Tyrosine-protein kinase Lyn (Homo sapiens) (UniProt P07948); assay: Inhibition of human LYNA at 0.1 uM relative to control
[3] = molecular target: Aurora kinase A (Homo sapiens) (UniProt O14965); assay: Inhibition of human AURKA at 0.1 uM relative to control
[4] = molecular target: Macrophage colony-stimulating factor 1 receptor (Homo sapiens) (UniProt P07333); assay: Inhibition of human CSF1R at 0.1 uM relative to control
[5] = molecular target: Tyrosine-protein kinase Fgr (Homo sapiens) (UniProt P09769); assay: Inhibition of human FGR at 0.1 uM relative to control
[6] = system: Proto-oncogene tyrosine-protein kinase receptor Ret (Homo sapiens), P07949 [Y791F]; assay: Inhibition of human RET Y791F mutant at 0.1 uM relative to control
[7] = molecular target: Aurora kinase B (Homo sapiens) (UniProt Q96GD4); assay: Inhibition of human AURKB at 0.1 uM relative to control
[8] = molecular target: Tyrosine-protein kinase ABL1 (Homo sapiens) (UniProt P00519); assay: Inhibition of human ABL1 at 0.1 uM relative to control
[9] = system: Platelet-derived growth factor receptor alpha (Homo sapiens), P16234 [V561D]; assay: Inhibition of human PDGFRA V561D mutant at 0.1 uM relative to control
[10] = molecular target: Tyrosine-protein kinase Fyn (Homo sapiens) (UniProt P06241); assay: Inhibition of human FYN at 0.1 uM relative to control
[11] = molecular target: Vascular endothelial growth factor receptor 1 (Homo sapiens) (UniProt P17948); assay: Inhibition of human FLT1 at 0.1 uM relative to control
[12] = molecular target: Tyrosine-protein kinase CSK (Homo sapiens) (UniProt P41240); assay: Inhibition of human CSK at 0.1 uM relative to control
[13] = molecular target: Fibroblast growth factor receptor 1 (Homo sapiens) (UniProt P11362); assay: Inhibition of human FGFR1 at 0.1 uM relative to control
[14] = molecular target: Serine/threonine-protein kinase Sgk2 (Homo sapiens) (UniProt Q9HBY8); assay: Inhibition of human SGK2 at 0.1 uM relative to control
[15] = molecular target: Dual specificity protein kinase CLK1 (Homo sapiens) (UniProt P49759); assay: Inhibition of human CLK1 at 0.1 uM relative to control
[16] = molecular target: CDK2/Cyclin A2 (Homo sapiens) (UniProt P24941+P20248); assay: Inhibition of human CDK2/cyclin A at 0.1 uM relative to control; assay type: protein-complex assay
[17] = molecular target: Receptor tyrosine-protein kinase erbB-2 (Homo sapiens) (UniProt P04626); assay: Inhibition of human HER2 at 0.1 uM relative to control
[18] = molecular target: Serine/threonine-protein kinase Chk2 (Homo sapiens) (UniProt O96017); assay: Inhibition of human CHK2 at 0.1 uM relative to control
[19] = molecular target: T1, Receptor-type tyrosine-protein kinase FLT3 (Homo sapiens, UniProt P36888); assay: Inhibition of wild type FLT3 (unknown origin) phosphorylation expressed in HEK293T cells preincubated for 1 hr followed by FLT3 ligand addition for 5 mins by Western blot analysis; assay type: cell-based, HEK-293T
T1 sequence (P36888 whole entry): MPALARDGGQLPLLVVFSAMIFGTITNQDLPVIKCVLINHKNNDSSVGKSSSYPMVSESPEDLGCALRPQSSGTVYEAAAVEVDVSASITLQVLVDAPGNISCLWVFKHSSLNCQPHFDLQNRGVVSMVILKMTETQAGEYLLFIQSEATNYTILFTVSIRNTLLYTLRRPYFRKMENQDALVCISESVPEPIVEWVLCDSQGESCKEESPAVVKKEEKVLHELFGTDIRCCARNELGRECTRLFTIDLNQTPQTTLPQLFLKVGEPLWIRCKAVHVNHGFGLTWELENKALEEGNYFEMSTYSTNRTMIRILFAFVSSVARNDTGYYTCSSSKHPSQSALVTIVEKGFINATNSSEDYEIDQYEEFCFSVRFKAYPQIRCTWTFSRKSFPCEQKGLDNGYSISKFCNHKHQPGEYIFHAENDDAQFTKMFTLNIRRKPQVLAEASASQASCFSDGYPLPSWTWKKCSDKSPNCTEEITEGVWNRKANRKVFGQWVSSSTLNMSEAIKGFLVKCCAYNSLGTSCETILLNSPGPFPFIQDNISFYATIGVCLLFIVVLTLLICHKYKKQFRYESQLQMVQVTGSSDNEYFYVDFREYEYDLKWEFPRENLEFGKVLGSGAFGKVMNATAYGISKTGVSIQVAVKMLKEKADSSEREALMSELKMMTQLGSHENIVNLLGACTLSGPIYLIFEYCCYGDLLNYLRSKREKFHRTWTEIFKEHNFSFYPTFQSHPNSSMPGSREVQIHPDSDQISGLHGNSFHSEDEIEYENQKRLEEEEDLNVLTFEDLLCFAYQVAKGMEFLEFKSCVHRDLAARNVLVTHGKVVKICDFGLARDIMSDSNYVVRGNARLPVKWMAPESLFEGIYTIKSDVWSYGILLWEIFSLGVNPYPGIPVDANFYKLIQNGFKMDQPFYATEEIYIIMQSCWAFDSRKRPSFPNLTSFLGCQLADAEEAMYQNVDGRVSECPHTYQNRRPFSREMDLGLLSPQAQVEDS

[20] = molecular target: Receptor-type tyrosine-protein kinase FLT3 (Homo sapiens, UniProt P36888, ITD); assay: Inhibition of FLT3 ITD mutant (unknown origin) phosphorylation expressed in HEK293T cells preincubated for 1 hr followed by FLT3 ligand addition for 5 mins by Western blot analysis; assay type: cell-based, HEK-293T
[21] = Plasma clearance in Sprague-Dawley rat at 2 mg/kg, iv; assay type: ADME, organism-based
[22] = Half life in ICR mouse at 10 mg/kg, po; assay type: ADME, organism-based; conditions: in vivo
MV4-11 = assay: Antitumor activity against human MV4-11 cells xenografted in nude mouse assessed as tumor growth inhibition at 25 mg/kg, po qd administered on day 8 to 12 measured during compound dosing; assay type: functional, organism-based
Mus musculus [23] = assay: Antitumor activity against human MOLM13 cells xenografted in SCID mouse assessed as increase in survival at 25 mg/kg, po qd administered on day 8 to 12 relative to vehicle-treated control; assay type: functional, MOLM-13
Mus musculus [24] = assay: Toxicity in nude mouse allografted with mouse 32D cells expressing FLT3 ITD D835Y mutant at 10 mg/kg/day, po administered 5 days on/2 days off schedule for 4 weeks measured daily during compound dosing; assay type: organism-based; conditions: in vivo
[25] = AUC (0 to infinity) in ICR mouse at 10 mg/kg, po; assay type: ADME, organism-based; parameters: dose 10 mg/kg, time infinity, route oral; conditions: in vivo
[26] = molecular target: Vascular endothelial growth factor receptor 2 (Homo sapiens, UniProt P35968); conditions: 0.1 uM
Description: Inhibition of human KDR at 0.1 uM relative to control

[27] = system: Receptor-type tyrosine-protein kinase FLT3 (Homo sapiens), P36888 [D835V]

Chain of Aurora kinase A (Homo sapiens) (O14965 whole entry): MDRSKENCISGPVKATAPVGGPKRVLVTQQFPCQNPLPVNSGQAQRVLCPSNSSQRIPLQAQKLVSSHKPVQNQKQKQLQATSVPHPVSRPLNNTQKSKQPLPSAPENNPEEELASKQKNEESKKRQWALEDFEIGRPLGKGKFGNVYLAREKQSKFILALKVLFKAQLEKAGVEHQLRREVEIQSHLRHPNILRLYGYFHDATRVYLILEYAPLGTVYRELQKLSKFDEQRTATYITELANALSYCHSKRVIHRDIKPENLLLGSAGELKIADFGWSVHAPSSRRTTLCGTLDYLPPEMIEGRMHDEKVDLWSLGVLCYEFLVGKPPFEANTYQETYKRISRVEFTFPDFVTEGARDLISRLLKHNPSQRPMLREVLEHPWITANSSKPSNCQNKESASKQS
Chain of Dual specificity protein kinase CLK1 (Homo sapiens) (P49759 whole entry, looked up): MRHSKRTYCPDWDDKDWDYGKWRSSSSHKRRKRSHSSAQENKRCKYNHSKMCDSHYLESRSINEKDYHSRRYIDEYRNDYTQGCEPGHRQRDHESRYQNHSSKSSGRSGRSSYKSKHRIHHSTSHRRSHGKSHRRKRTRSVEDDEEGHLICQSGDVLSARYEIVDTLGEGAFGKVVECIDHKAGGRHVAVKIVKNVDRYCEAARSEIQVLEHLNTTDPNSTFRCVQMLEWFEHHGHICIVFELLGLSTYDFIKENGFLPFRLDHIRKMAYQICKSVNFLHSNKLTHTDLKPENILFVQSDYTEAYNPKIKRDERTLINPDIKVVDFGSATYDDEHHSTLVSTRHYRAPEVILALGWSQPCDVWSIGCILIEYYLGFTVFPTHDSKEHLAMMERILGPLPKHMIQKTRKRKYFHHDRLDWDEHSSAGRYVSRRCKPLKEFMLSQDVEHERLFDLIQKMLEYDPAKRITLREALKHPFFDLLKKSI
Chain of Tyrosine-protein kinase ABL1 (Homo sapiens) (P00519 whole entry): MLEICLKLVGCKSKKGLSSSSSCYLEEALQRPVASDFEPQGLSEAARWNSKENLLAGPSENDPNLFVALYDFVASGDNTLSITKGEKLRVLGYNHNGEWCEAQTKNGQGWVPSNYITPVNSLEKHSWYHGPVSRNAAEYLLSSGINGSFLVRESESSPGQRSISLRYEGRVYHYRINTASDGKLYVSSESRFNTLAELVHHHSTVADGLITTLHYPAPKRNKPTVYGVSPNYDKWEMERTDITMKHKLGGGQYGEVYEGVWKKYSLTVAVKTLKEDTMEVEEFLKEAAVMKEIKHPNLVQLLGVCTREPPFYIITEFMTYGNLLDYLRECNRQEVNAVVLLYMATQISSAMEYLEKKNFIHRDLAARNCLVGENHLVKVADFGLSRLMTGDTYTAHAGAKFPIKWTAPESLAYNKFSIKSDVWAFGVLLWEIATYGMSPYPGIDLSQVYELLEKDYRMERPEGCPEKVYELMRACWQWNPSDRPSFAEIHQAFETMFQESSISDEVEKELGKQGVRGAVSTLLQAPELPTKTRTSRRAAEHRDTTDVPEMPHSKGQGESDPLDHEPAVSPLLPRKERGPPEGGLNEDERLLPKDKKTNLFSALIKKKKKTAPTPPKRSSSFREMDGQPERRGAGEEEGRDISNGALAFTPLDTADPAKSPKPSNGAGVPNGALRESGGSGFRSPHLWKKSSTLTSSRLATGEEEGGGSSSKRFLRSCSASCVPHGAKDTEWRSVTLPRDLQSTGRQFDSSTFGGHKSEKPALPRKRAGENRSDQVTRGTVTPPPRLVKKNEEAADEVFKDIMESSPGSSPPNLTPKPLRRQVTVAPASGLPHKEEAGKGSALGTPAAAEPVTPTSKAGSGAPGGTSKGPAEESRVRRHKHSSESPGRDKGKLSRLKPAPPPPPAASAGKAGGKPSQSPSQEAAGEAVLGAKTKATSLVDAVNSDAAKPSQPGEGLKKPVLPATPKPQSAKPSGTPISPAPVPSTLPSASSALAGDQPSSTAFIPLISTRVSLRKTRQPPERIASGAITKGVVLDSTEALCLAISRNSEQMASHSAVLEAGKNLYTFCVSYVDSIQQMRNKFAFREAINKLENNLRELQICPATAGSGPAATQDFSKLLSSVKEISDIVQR
Chain of Receptor tyrosine-protein kinase erbB-2 (Homo sapiens) (P04626 whole entry): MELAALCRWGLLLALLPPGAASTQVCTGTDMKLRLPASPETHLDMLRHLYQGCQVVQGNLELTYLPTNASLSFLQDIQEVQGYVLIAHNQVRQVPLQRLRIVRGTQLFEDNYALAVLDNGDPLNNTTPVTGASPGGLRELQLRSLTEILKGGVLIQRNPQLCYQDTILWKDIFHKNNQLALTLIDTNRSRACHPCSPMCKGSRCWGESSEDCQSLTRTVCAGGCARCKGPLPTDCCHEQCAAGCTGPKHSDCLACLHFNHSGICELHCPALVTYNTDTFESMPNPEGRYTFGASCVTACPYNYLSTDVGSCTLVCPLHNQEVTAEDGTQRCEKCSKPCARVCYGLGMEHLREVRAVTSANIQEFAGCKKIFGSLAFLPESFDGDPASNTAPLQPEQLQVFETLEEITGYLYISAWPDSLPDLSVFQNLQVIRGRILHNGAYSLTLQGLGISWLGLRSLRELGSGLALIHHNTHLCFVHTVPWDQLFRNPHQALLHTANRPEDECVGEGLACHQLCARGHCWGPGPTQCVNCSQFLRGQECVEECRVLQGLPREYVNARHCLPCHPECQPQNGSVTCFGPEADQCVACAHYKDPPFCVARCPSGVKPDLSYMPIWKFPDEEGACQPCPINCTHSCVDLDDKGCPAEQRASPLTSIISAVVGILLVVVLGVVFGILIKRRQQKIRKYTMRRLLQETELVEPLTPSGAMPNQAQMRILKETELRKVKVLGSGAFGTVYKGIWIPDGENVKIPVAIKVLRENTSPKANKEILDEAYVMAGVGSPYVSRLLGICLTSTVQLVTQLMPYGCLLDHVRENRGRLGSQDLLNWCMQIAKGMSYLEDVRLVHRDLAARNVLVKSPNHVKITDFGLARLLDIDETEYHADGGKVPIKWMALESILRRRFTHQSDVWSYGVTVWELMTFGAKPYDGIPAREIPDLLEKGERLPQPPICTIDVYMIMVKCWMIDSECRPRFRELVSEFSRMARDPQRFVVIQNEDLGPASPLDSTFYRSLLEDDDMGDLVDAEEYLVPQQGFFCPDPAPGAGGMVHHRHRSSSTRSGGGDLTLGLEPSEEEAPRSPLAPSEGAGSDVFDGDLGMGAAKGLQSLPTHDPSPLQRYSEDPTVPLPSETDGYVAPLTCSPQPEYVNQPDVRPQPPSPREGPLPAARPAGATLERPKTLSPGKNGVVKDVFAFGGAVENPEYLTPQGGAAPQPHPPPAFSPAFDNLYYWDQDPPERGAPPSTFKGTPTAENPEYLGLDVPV
Chain of Serine/threonine-protein kinase Sgk2 (Homo sapiens) (Q9HBY8 whole entry): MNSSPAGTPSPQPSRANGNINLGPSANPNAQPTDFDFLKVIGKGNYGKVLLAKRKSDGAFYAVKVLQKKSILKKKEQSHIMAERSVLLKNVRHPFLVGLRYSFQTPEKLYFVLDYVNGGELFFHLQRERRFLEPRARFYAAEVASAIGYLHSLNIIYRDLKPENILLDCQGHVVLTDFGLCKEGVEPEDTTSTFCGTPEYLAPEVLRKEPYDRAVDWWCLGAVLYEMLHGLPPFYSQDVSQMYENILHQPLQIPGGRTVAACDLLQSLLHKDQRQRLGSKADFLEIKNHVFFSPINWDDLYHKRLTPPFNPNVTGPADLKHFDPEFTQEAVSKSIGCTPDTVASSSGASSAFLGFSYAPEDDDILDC
Chain of Vascular endothelial growth factor receptor 2 (P35968 whole entry): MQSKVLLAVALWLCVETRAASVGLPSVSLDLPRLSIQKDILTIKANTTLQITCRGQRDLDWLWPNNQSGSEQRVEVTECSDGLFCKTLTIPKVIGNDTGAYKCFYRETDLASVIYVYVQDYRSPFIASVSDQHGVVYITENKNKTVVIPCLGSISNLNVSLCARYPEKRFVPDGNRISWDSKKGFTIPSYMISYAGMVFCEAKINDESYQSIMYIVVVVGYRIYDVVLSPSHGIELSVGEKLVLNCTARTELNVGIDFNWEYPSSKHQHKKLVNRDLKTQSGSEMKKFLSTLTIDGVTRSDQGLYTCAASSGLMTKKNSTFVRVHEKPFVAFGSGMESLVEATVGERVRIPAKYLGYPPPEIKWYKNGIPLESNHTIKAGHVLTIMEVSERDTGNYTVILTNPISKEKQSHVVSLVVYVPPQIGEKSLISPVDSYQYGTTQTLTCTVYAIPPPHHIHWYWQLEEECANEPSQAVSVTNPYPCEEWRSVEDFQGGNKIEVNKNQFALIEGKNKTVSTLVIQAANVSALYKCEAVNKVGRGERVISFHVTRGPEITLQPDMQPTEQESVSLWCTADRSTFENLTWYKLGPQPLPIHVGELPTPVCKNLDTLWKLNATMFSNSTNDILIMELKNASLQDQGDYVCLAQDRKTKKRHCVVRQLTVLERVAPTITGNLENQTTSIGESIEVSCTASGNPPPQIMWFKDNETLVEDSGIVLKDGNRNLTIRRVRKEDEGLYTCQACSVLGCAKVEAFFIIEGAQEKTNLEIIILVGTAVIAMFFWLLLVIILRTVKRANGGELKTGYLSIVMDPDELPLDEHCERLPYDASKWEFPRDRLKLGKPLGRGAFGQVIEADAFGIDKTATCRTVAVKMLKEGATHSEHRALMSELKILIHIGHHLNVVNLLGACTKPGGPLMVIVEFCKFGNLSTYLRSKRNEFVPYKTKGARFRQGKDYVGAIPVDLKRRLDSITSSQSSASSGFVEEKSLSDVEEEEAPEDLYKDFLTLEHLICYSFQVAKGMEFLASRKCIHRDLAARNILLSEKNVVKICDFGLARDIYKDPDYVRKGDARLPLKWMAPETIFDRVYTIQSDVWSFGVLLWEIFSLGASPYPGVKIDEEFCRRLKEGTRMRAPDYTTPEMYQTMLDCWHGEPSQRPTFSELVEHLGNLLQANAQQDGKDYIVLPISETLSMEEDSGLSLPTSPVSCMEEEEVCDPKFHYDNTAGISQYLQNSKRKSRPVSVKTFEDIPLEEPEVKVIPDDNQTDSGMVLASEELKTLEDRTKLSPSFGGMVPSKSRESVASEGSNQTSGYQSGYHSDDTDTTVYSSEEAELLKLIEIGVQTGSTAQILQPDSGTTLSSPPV

## CCc1cc(NC(=O)Nc2ccc(-c3cnc(Nc4cc(N5CCN(CC)CC5)nc(C)n4)s3)cc2)no1
[1]
  inhibition: 93%
[2]
  inhibition: 96%
[3]
  inhibition: 96%
[4]
  inhibition: 94%
[5]
  inhibition: 89%
[6]
  inhibition: 86%
[7]
  inhibition: 85%
[8]
  inhibition: 66%
[9]
  inhibition: 63%
[10]
  inhibition: 46%
[11]
  inhibition: 44%
[12]
  inhibition: 23%
[13]
  inhibition: 10%
[14]
  inhibition: 6%
[15]
  inhibition: 5%
[16]
  inhibition: 4%
[17]
  inhibition: 0%
[18]
  inhibition: -3%
[19]
  IC50: 10 nM
[20]
  IC50: 10 nM
[21]
  clearance: 31.6 mL/min/kg
[22]
  half-life: 1.8 h
MV4-11
  TGI: Active
Mus musculus [23]
  Activity: 90%
Mus musculus [24]
  Activity: Non-toxic
[25]
  AUC(0-inf): 942 ng·h/mL
[26]
  inhibition: 85%
[27]
  GI50: 4 nM
